Results as given in BindingDB's records for doi:10.1021/jm061299k (Bayer Healthcare Pharmaceuticals, 2007).
pEC50: −log10 of the molar value.

The compounds below were run against Peroxisome proliferator-activated receptor gamma (Mus musculus) (UniProt P37238) (assay: PPARgamma activity was assessed by the cell-based insulin receptor binding assay (IRBA) in mouse 3T3-L1 cells, measuring the increase in the number of insulin receptors). Settings: not given.

Question: How did the pEC50 turn out when O=C(O)C[C@@H]1CCc2cc(OCCCOc3ccccc3)ccc21 [2-[(1S)-5-(3-phenoxypropoxy)-2,3-dihydro-1H-inden-1-yl]acetic acid] was run?
Answer: < 5.00

Question: COc1cc(-c2nc(C)c(C(=O)N(C)C)s2)ccc1OCCCOc1ccc2c(c1)CC[C@H]2CC(=O)O [2-[(1S)-5-(3-{4-[5-(dimethylcarbamoyl)-4-methyl-1,3-thiazol-2-yl]-2-methoxyphenoxy}propoxy)-2,3-dihydro-1H-inden-1-yl]acetic acid] was tested. Which pEC50 did it give?
Answer: 6.51

Question: CCCc1cc(-c2nc(C)c(C(=O)N(C)C)s2)ccc1OCCCOc1ccc2c(c1)CC[C@H]2CC(=O)O [2-[(1S)-5-(3-{4-[5-(dimethylcarbamoyl)-4-methyl-1,3-thiazol-2-yl]-2-propylphenoxy}propoxy)-2,3-dihydro-1H-inden-1-yl]acetic acid] was tested. Which pEC50 did it give?
Answer: 7.70

Question: With O=C(O)C[C@@H]1CCc2cc(OCCCOc3ccc4cnoc4c3)ccc21 [2-[(1S)-5-[3-(1,2-benzoxazol-6-yloxy)propoxy]-2,3-dihydro-1H-inden-1-yl]acetic acid] as the compound, how does the pEC50 read?
Answer: < 5.00

Question: O=C(O)C[C@@H]1CCc2cc(OCCCOc3ccc4ncoc4c3)ccc21 [2-[(1S)-5-[3-(1,3-benzoxazol-6-yloxy)propoxy]-2,3-dihydro-1H-inden-1-yl]acetic acid] was tested. Which pEC50 did it give?
Answer: < 5.00

Question: O=C(O)C[C@@H]1CCc2cc(OCCCOc3ccc4cc[nH]c4c3)ccc21 [2-[(1S)-5-[3-(1H-indol-6-yloxy)propoxy]-2,3-dihydro-1H-inden-1-yl]acetic acid] was tested. Which pEC50 did it give?
Answer: < 5.00

Question: With Cc1ccc(OCCCOc2ccc3c(c2)CC[C@H]3CC(=O)O)cc1C [2-[(1S)-5-[3-(3,4-dimethylphenoxy)propoxy]-2,3-dihydro-1H-inden-1-yl]acetic acid] as the compound, how does the pEC50 read?
Answer: < 5.00

Question: How did the pEC50 turn out when CCCc1c(OCCCOc2ccc3c(c2)CC[C@H]3CC(=O)O)ccc2c1ccn2C [2-[(1S)-5-{3-[(1-methyl-4-propyl-1H-indol-5-yl)oxy]propoxy}-2,3-dihydro-1H-inden-1-yl]acetic acid] was run?
Answer: < 5.00

These compounds were tested against T1, Peroxisome proliferator-activated receptor alpha (Homo sapiens, UniProt Q07869) (assay: PPAR FRET Assay). Settings: 25 °C.
T1 sequence (Q07869 whole entry): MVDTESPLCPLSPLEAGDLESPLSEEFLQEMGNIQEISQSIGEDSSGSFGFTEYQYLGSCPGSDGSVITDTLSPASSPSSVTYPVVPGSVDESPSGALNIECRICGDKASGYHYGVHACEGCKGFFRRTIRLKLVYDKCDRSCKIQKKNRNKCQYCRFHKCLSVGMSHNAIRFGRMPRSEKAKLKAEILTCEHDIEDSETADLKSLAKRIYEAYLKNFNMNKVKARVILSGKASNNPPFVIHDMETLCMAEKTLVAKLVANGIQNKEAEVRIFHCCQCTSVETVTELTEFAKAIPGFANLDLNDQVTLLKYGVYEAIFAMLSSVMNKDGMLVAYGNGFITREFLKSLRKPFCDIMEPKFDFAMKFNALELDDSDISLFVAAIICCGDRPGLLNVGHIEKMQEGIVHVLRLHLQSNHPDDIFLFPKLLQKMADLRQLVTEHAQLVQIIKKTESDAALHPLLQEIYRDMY
Method: (§1) Activity was assessed by measuring the human PPAR ligand binding domain with the co-activator protein. Europium labeled anti-GST antibody, streptavidin-labeled APC, biotin-labeled co-activator protein, and PPAR-GST were incubated at room temperature in buffer in the presence or absence of test compound.

Question: How did the pEC50 turn out when CCCc1cc(-c2nc3c(s2)CCCO3)ccc1OCCCOc1ccc2c(c1)CC[C@H]2CC(=O)O [2-[(1S)-5-[3-(2-propyl-4-{5H,6H,7H-pyrano[2,3-d][1,3]thiazol-2-yl}phenoxy)propoxy]-2,3-dihydro-1H-inden-1-yl]acetic acid] was run?
Answer: 7.00

These compounds were tested against T2, Peroxisome proliferator-activated receptor delta (Homo sapiens, UniProt Q03181) (assay: PPAR FRET Assay). Settings: 25 °C.
T2 sequence (Q03181 whole entry): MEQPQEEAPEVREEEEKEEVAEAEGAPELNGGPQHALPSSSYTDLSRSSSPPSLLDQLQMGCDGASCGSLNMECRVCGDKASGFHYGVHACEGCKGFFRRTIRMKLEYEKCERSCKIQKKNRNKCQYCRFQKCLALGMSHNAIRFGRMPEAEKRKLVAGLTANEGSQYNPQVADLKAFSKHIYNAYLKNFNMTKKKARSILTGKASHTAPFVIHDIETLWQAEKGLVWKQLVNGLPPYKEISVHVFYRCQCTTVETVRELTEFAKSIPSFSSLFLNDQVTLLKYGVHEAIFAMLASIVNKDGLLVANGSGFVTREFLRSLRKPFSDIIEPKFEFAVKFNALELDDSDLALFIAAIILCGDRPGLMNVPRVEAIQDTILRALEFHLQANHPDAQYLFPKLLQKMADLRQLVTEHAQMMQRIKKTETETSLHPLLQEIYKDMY
Method: as §1

Question: How did the pEC50 turn out when CCCc1cc(-c2nc3c(s2)CCCO3)ccc1OCCCOc1ccc2c(c1)CC[C@H]2CC(=O)O [2-[(1S)-5-[3-(2-propyl-4-{5H,6H,7H-pyrano[2,3-d][1,3]thiazol-2-yl}phenoxy)propoxy]-2,3-dihydro-1H-inden-1-yl]acetic acid] was run?
Answer: 8.40
